Results as given in ChEMBL document CHEMBL1177776, “Novel coumarin derivatives as potential antidyslipidemic agents” (2010).

Assays:
Type in all cases: functional
[1] = Antioxidant activity assessed as inhibition non-enzymatic reactants generated hydroxyl radical production at 100 ug/ml by spectrophotometry
[2] = Antioxidant activity assessed as inhibition non-enzymatic reactants generated superoxide anion at 20 ug/ml by spectrophotometry
[3] = Antioxidant activity assessed as inhibition lipid peroxidation at 200 ug/ml by spectrophotometry
[4] = tested on: Rattus norvegicus; assay: Antidyslipidemic activity against triton-induced hyperlipidemia in Charles Foster rat assessed as reduction in total cholesterol level at 100 mg/kg, po after 18 hrs by spectrophotometry relative to control; set-up: scale not given: the % may be the effect or the level left
[5] = tested on: Rattus norvegicus; assay: Antidyslipidemic activity against triton-induced hyperlipidemia in Charles Foster rat assessed as reduction in phospholipid level at 100 mg/kg, po after 18 hrs by spectrophotometry relative to control; set-up: scale not given: the % may be the effect or the level left
[6] = tested on: Rattus norvegicus; assay: Antidyslipidemic activity against triton-induced hyperlipidemia in Charles Foster rat assessed as reduction in triglyceride level at 100 mg/kg, po after 18 hrs by spectrophotometry relative to control; set-up: scale not given: the % may be the effect or the level left
[7] = Antioxidant activity assessed as inhibition non-enzymatic reactants generated hydroxyl radical production at 200 ug/ml by spectrophotometry
[8] = Antioxidant activity assessed as inhibition non-enzymatic reactants generated superoxide anion at 200 ug/ml by spectrophotometry

Row | Compound | inhibition [1] [%] | inhibition [2] [%] | inhibition [3] [%] | Activity [4] [%] | Activity [5] [%] | Activity [6] [%] | inhibition [7] [%] | inhibition [8] [%]
1 | OC[C@@H](O)[C@@H](O)[C@H](O)[C@H](O)CO | 52 |  |  |  |  |  |  | 
2 | Oc1ncnc2[nH]ncc12 |  | 80 |  |  |  |  |  | 
3 | Cc1cc2cc(Cl)c(=O)oc2c2ccccc12 |  |  | 38 | 27 | 26 | 26 | 49 | 32
4 | Cc1cc(C=O)c(O)c2ccccc12 |  |  | 41 | 24 | 25 | 23 | 41 | 27
5 | Cc1ccc(C)c(OCCCC(C)(C)C(=O)O)c1 [GEMFIBROZIL] |  |  |  | 34 | 38 | 35 |  | 
6 | Cc1c(C)c2c(c(C)c1O)CC[C@@](C)(CCC[C@H](C)CCC[C@H](C)CCCC(C)C)O2 | 47 |  |  |  |  |  |  | 
